Measured values: ChEMBL document CHEMBL4011661, “The Fragment Network: A Chemistry Recommendation Engine Built Using a Graph Database” (J Med Chem, 2017)

Test system: not listed separately
Assay: Inhibition of 5-FAM peptide binding to Hepatitis C virus full length NS3/4A helicase after 30 mins by FRET assay
Set-up: species or system Hepacivirus hominis

For `NCc1ccc(Oc2ccccc2)cc1`, which IC50 is on record?
The IC50 was 500 µM.

For `NCc1ccc(F)c(Oc2ccccc2)c1F`, which IC50 is on record?
The IC50 was 20 µM.

For `NCc1ccc(Oc2ccccc2)c(Cl)c1`, which IC50 is on record?
Its IC50 is 41 µM.

Which IC50 does the source give for `NCc1cccc(Oc2ccccc2)c1` here?
The IC50 was 130 µM.

For `NCc1cc(F)c(Oc2ccccc2)c(F)c1`, which IC50 is on record?
The IC50 was 34 µM.

With `NCc1ccc(C(=O)c2ccccc2)cc1` as the molecule, how does the IC50 read?
The IC50 was 180 µM.

Biological target: RAC-beta serine/threonine-protein kinase (Homo sapiens, UniProt P31751)
Assay: Inhibition of PKBbeta (unknown origin) in presence of [33P-gamma]ATP by scintillation counting

Chain of RAC-beta serine/threonine-protein kinase (P31751 whole entry): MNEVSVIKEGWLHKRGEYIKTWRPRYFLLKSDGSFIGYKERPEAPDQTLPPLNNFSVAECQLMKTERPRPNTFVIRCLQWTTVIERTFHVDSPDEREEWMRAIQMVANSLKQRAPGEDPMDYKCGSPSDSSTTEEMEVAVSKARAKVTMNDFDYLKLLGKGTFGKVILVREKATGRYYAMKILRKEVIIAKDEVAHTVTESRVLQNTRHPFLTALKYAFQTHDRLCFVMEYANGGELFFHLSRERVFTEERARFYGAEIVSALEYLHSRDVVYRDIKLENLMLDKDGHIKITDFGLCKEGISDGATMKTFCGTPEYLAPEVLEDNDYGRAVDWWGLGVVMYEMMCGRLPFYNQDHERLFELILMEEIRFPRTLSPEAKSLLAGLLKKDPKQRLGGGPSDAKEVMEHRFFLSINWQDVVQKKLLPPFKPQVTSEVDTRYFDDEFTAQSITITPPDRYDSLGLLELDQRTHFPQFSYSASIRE

Which IC50 does the source give for `Cc1n[nH]c(N)c1-c1ccccc1` here?
The IC50 was 660 µM.

Which IC50 does the source give for `Cc1n[nH]c(C)c1-c1ccccc1` here?
Its IC50 is 72 µM.
